US12466840B2, “Small molecule inhibitors of KRAS proteins” (Merck Sharp & Dohme LLC, priority 2023, dated 2025)

Assay: Dog IV cassette pharmacokinetic studies
Type: in vivo
Conditions: plasma, IV cassette 0.05 mg/kg
Experimental: Procedure for Dog IV Cassette Pharmacokinetic Studies
Plasma pharmacokinetic parameters for clearance, volume of distribution, half-life, and mean residence time (MRT) were determined in dogs from IV cassette administration studies. 2 male dogs, typically weighing 8-12 kg, were fasted overnight prior to dosing. IV formulation was administered to 2 dogs via the saphenous or cephalic vein. Blood was collected by the cephalic or jugular vein, typically at predose, 2, 8, 15, 30 min, 1, 2, 4, 6, 8 and 24 h postdose. Samples were collected in K2EDTA tubes, stored on ice, and centrifuged. Plasma was transferred to a micro titer plate and stored at −70° C. until analysis. Plasma samples were extracted using protein precipitation and analyzed by liquid chromatography separation followed by mass spec detection (LC-MS/MS), using a standard curve for each compound. Plasma pharmacokinetic parameters were calculated by non-compartmental methods.

What does the source list for `CCc1c(F)ccc2cc3[nH]nc(C)c3c(-c3nc4c5c(nc(OC[C@@]67CCCN6C/C(=C\F)C7)nc5c3F)N3CCCOC[C@H]3CO4)c12` [Ex-7, (8aS)-5-(5-ethyl-6-fluoro-3-methyl-1H-benzo[f]indazol-4-yl)-4-fluoro-2-(((S,Z)-2-(fluoromethylene)tetrahydro-1H-pyrrolizin-7a(5H)-yl)methoxy)-8a,9,12,13-tetrahydro-8H,11H-7,10-dioxa-1,3,6,13a-tetraazanaphtho[1,8-ab]heptalene]?
CLp: 7.7 mL/min/kg; MRT: 3.1 h; Vd: 1.4 L/kg
